Assay results taken from paper PMC11869428 (Microbial Cell Factories, 2025).

Target: T1, GenP (Micromonospora echinospora, UniProt A0A1C4WLH3)
T1 sequence (A0A1C4WLH3 1-268): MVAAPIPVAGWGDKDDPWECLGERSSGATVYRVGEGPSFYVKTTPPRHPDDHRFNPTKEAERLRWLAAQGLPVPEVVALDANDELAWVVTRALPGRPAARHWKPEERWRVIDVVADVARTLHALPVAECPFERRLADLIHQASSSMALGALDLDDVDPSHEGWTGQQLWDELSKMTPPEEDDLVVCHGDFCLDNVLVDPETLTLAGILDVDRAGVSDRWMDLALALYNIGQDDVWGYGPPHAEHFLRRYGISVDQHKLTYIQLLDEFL
Assay: preparative phosphorylation, HPLC-ELSD
Format: biochemical
Conditions: ATP […], MgCl2 […], Tris […] pH […] °C, […] h

## CN[C@@H]1[C@@H](O)[C@@H](O[C@@H]2[C@@H](O)[C@H](O[C@H]3O[C@H](CN)[C@@H](O)[C@H](O)[C@H]3N)[C@@H](N)C[C@H]2N)OC[C@]1(C)O [JI-20A]
  preparative phosphorylation, HPLC-ELSD: JI-20A-P, JI-20Ba-P, and JI-20B-P were obtained through the catalysis of GenP
